Legend:
osteoblasts = assay: Histomorphometric bone analysis, EL4 study (Example 9); assay type: in vivo, mice
Experimental: Histomorphometric analyses were performed on vertebral column specimens collected from 2 months old mice using undecalcified sections using the osteomeasure analysis system (Osteometrics). Lumbar vertebrae were dissected, fixed for 24 hours in 10% formalin, dehydrated in graded ethanol series, and embedded in methyl methacrylate resin according to standard protocols (Chappard et al. (1987); Parfitt et al. (1987)).
Bone formation rate (BFR) was analyzed by the calcein double-labeling method. Calcein (Sigma) was dissolved in calcein buffer (0.15 M NaCl, 2% NaHCO3) and administered by an intraperitoneal injection of 25 μg/g body weight, 6 days and 2 days before sacrificing the animals. In experiments evaluating survival rates of animals, bone formation rate was not calculated due to the unknown time of death. Unstained 4-μm sections were used for BFR measurements.
For the analysis of parameters of osteoblast and osteoclast, 4-μm sections were stained with toluidine blue and tartrate-resistant acid phosphatase (TRAP), respectively. Type I collagen content and bone volume over trabecular volume (BV/TV) were analyzed using 7-μm sections by Von Gieson and Von Kossa staining […] respectively in undecalcified sections. Images were taken using a 10× objective on a Leica microscope outfitted with camera. Six to ten animals were analyzed for each group.
Mice were treated orally with LP-533401 (25 or 200 mg per kg of body weight per day) or vehicle. Treatments started 15 days before malignant cell injections in all sets of experiments, and continued for the indicated periods of time. LP-533401 was dissolved in polyethylene glycol (PEG) and 5% dextrose or 2.5% glucose (Sigma), and given daily by oral gavage. Mice treated with vehicle were administered, in the same way as LP533401, a solution of PEG and 5% dextrose or 2.5% glucose, daily, by oral gavage.
Bioluminescence imaging, luciferase intensity measurement, hind-limb paralysis, blood cell counts, bone mass, osteoblast number, bone formation rate and survival were determined as previously described in Examples 2, 3, and 5-7.

serum serotonin = assay: Serum serotonin levels, WEHI/3B study (Example 12); assay type: in vivo; settings: non-leukemic mice treated with LP-533401 (NL-LP); BALB/cJ
Experimental: For measurements of serum serotonin levels, mice were briefly exposed to Isoflurane (Baxter) for 30 seconds and blood was collected by cardiac puncture. Similar volumes of blood were collected from different animals for consistency in the clotting times. Serum collection from all mice was done between 9:00 am and 12:00 pm. Blood was allowed to clot on ice for 5 minutes before centrifugation at maximum speed at 4° C. for 10 minutes. The serum supernatant was removed, snap frozen and stored at −80° C. for further analysis. Serum serotonin levels were quantified by ELISA (Serotonin kit, Fitzgerald) according to manufacturer's instructions. […]
All mice were sacrificed after 2 weeks for the following assessments: • Serum serotonin levels as measured in Example 9; • Body weight as described in Example 2 • Spleen weight as described in Example 2; • Histological analysis of the femur, spleen and liver as described in Example 2; • Trabecular Bone Volume (Bv/TV) as described in Example 3; • and • Gene Expression analysis by PCR as described in Example 3. […]

[1] = test system: hematopoietic compartment; assay: Flow cytometry of hematopoietic cell populations in bone marrow (Example 11); assay type: in vivo, mice
Experimental: Freshly isolated bone marrow cells or spleen cells were resuspended in flow-staining buffer (PBS plus 2% FBS) and the primary conjugated antibodies were added. After 30 minutes incubation at 4° C., the cells were then washed twice before flow cytometry analysis. The following antibodies conjugated with fluorescein isothiocyanate (FITC), Allophycocyanin (APC) phycoerythrin (PE), PE-Cy7, APC-CY7, Pacific Blue, and Alexa 700 were used: Lineage cocktail (B220, CD19, IL-7R chain, CD3, DX5, Gr-1, Ter119, CD71 and CD41), B220 (6B2), CD19 (1D3), IgM (II/41), CD3 (KT31.1), CD4 (GK1.5), CD8 (53-6.7), Gr-1 (8C5), Mac1/CD11b (M1/70), Ter119, CD71 (C2), c-Kit (2B8), Sca-1 (E13-161-7), CD34 (RAM34), FcRII/III (2.4G2) or CD135/Flt-3 (all from Becton Dickinson, San Diego, Calif.).
The cell cycle analysis of LSK cells was determined by staining for 30 min at 37° C. with Hoechst 33342 (Molecular Probes) and pyronin Y (Sigma). Seven-color flow cytometry acquisition was performed using a LSR II flow cytometer (Becton Dickinson) and analysis using FLO-JO software (Treestar, Inc). Cells were gated for size, shape and granularity using forward and side scatter parameters. The positive populations were identified as cells that expressed specific levels of fluorescence activity above the nonspecific auto fluorescence of the isotype control. Nonspecific binding was reduced by preincubation with unconjugated anti-FcRII/III (2.4G2). For Flow sorting EL4-GFP-Luc cells were resuspended in flow staining buffer, and flow sorting was performed using FACSAria (BD). Sorted GFP positive cells were then subsequently cultured for 12 hours and injected into the mice.
The methods used in Example 8 to measure the various cell types were used.
Mice treated as described in Example 9 were examined.

EL4 cells = assay: Injection of EL4 cells pre-treated with LP-533401 or serotonin into syngeneic mice (Example 13); assay type: in vivo; settings: cells treated before injection; LP-533401 0.1 to 1-fold serum concentration, serotonin 25 to 100 μM
Experimental: EL4 cells and WEH-3B cells, as described in Example 2, were treated with either LP-533401 or serotonin LP-533401 treatments were performed at 0.1 to 1-fold the amount equivalent to the LP-533401 serum concentration in mice treated with this compound. Serotonin was given at concentrations ranging from 25 to 100 μM, doses at which it affects the proliferation of cells expressing serotonin receptors (Kode et al. (2012); Yadav et al. (2008) Serafeim et al. (2003)).
EL4 cells treated with LP-533401 or serotonin were then injected into syngeneic mice as described in Example 2 to monitor leukemia engraftment, as commonly described for evaluating potential direct effects of compounds on leukemia cells (Moellering et al. (2009)).

[2] = LP-533401 25 or 200 mg/kg/day oral

Nc1nc(OC(c2ccc(-c3cccc(F)c3)cc2)C(F)(F)F)cc(-c2ccc(C[C@H](N)C(=O)O)cc2)n1 (some centres unmarked) [LP-533401]
bone resorption (osteoblasts; EL4 study): not affected
increase in bone formation rate (osteoblasts; [2]): 30%
increase in bone mass (osteoblasts; [2]): 30%
increase in osteoblast numbers (osteoblasts; [2]): 30%
leukemia-induced decrease in osteoblast numbers, bone formation rate and trabecular bone volume (osteoblasts; leukemic mice (EL4)): inhibited the decrease in osteoblast numbers, bone formation rate, and trabecular bone volume
decrease in serum serotonin levels compared to wild-type mice (serum serotonin): 50%
numbers of LSK FLT3+ cells ([1]; healthy and leukemic mice): reduced the numbers
B-lymphopoiesis ([1]; leukemic animals): did not affect
GMP and CMP populations ([1]; leukemic mice): further suppressed their frequencies
LSK FLT3+ lymphoid progenitor cell subset (percentage) ([1]; leukemic mice): not affected
MEP subsets ([1]; leukemic mice): not affected
TER119+ erythroid progenitor cells ([1]; leukemic mice): increased
increase in CD3+ cells ([1]; leukemic mice): prevented the increase
increase in CD11b+GR1+ myeloid cells ([1]; leukemic mice): limited the increase
leukemia-induced increase of LSK cells in the bone marrow ([1]; leukemic mice): hampered
leukemia-reduced total bone marrow cellularity ([1]; leukemic mice): not altered
CMPs and MEPs ([1]; non-leukemic mice): not affected
GMPs and more mature myeloid cells ([1]; non-leukemic mice): decreased
LSK cells in the bone marrow compared to wild-type ([1]; non-leukemic mice): decrease
Ter119+ erythroid cells ([1]; non-leukemic mice): increased
lymphoid lineage, including B and T cells ([1]; non-leukemic mice): no effect
total bone marrow cellularity ([1]; non-leukemic mice): did not affect
leukemia outcome (burden and lethality) after injection of pre-treated EL4 cells (EL4 cells): neither of the two treatments altered leukemia outcome

Reference: US9717727B2, “Methods of treating and preventing leukemia and other cancers of the blood and bone” (The Trustees of Columbia University in the City of New York, priority 2011, dated 2017)
